The subject of data set [1] is STAT3. The data set can be described thus: RT-PCR gene expression in stimulated PBMCs: STAT3. The following applies: 10 μg/mL. The format is cell-based, human. As to the method:
(§1) Quantitative real time PCR was used to detect the epsilon germline transcription. Human PBMC cells (1.5×10^6 cells/mL) were co-incubated with DMF-C1 compound (10 μg/mL) at 37° C. under 5% CO2 for 4 days. Cells were then harvested and total RNA was isolated using Trizol reagent (Gibco BRL, Rockville, Md.) following the manufacturer's instructions. The RNA concentrations were then quantified by triplicate optical density (OD) readings (Bio-Rad SmartSpect 3000; Bio-Rad, Hercules, Calif.). The reverse transcription was performed to get the cDNA using ImProm-II™ Reverse Transcriptase (Promega Corporation, Madison, Wis.) as described by the manufacturer's instructions. The RT-PCR amplification was performed using Maxima™ SYBR Green qPCR Master Mix (2×) kit (Fisher Scientific, Pittsburgh, Pa.) with epsilon germline primers or GAPDH primers. The primer sequences were listed as εGLT forward: 5′-[…]-3′; εGLT reverse: 5′-[…]-3′; GAPDH-forward: 5′-[…]-3′; GAPDH-reverse: 5′-[…]-3′; STAT3-forward: 5′-[…]-3′; STAT3-reverse: 5′-[…]-3′; T-bet-forward: 5′-[…]-3′; T-bet-reverse: 5′-[…]-3′; IFN-γ-forward: 5′-[…]-3′; IFN-γ-reverse: 5′-[…]-3′; IL-10-forward: 5′-[…]-3′; IL-10-reverse: 5′-[…]-3′. IL-5-forward. 5′-[…] TGCA-3′; IL-5-reverse: 5′-[…]-3′. All primers were synthesized by Sigma-Aldrich Corporation (St. Louis, Mo.).

For data set [2], the system named is T-bet. The data set can be described thus: RT-PCR gene expression in stimulated PBMCs: T-bet. The format is cell-based, human. The following applies: 10 μg/mL. As to the method: as §1
Data set [3] can be described thus: In vivo pharmacokinetics study of berberine bioavailability, serum LC-MS. The following applies: C3H/HeJ, mouse, oral berberine 2 mg, with or without Angelica sinensis 10 mg, 1 hr after administration, read-out: Concentration of berberine in serum from mice. The protocol:
C3H/Hej mice were purchased from Jackson laboratory (Bar Harbor, Me.) and maintained in the animal facility at Mount Sinai School of Medicine^(39). Standard guidelines for the care and use of animals were followed (Institute of Laboratory Animal Resources Commission of Life Sciences, 1996). In order to study the bioavailability, C3H/Hej mice were randomly separated into two groups. Mice were fasted for 12 h before the oral administration of berberine (2 mg) or berberine (2 mg)+Angelica sinensis (10 mg). Blood samples (100 μl) were collected from the facial vein at 1 hr after the administration. The serum of each blood sample was prepared and stored at −80° C. for further analysis. For in vivo study of berberine bioavailability, 50 μL of each serum sample was mixed with 400 μL of acetonitrile and vortexed thoroughly. The mixture was then centrifuged at 1000 rpm for 15 mins. The supernatant was dried under vacuum and resuspended into 50 μL of acetonitrile. All samples were analyzed using waters LC-MS system (Waters corp. MA) for berberine detection. Molecular weight was identified by LC-MS/TOF analysis in elctrospray (ESI) positive mode. The LCT premier TOF mass spectrometer (Waters Corporation, Milford, Mass.) was coupled to Waters Alliance 2695 HPLC system. […]. The mass range was from m/z 50 to 1000 in W optics mode. […]

For data set [4], the system named is CACO-2 cells. The data set can be described thus: Berberine uptake by Caco-2 cells, LC-MS. The data set is classed as in vitro ADME. The conditions noted are these: 50 μg/mL berberine, 1 hour. As to the method: Experiments were performed on 24 well plates for berberine uptake assay. CACO-2 cells were seeded in each well at the concentration of 1×10^5 cells/well. Cells were then allowed to grow to confluence and differentiation for 2 weeks in culture medium (DMEM+10% FBS, high glucose and sodium pyruvate and supplemented with 1% Essential Amino Acids). On the experiment day, cells were washed three times with pre-warmed HBSS and incubated with 1 ml warm HBSS for 30 minutes.
After conditioning with HBSS, cells were incubated at 37° C. with 50 μg/mL berberine with or without 250 μg/mL of nine different herbal medicines, fruits of Prunus mume (P. mume), skin of the fruits of Zanthoxylum schinifolium (Z. schinifolium), roots of Angelica sinensis (A. sinensis), rhizome of Zingiber officinalis (Z. officinalis), twigs of Cinnamomum cassia (C. cassia), bark of Phellodendron chinensis (P. chinensis), rhizome of Coptis chinensis (C. chinensis), roots of Panax ginseng (P. ginseng) and fruiting body of Ganoderma lucidum (G. lucidum). Control wells received 0, 50, 100 and 200 μg of berberine alone.
After 1 hour, cells were washed 3 times with ice-cold HBSS and scraped in 500 μl of ice cold HBSS and centrifuged. […] 75 μL of each sample was analyzed for its berberine concentration by using LC-MS. […]
All samples were analyzed using waters LC-MS system (Waters corp. MA) for berberine detection. […]

Data set [5] concerns U266 cells. The experiment in a line: Cell viability of U266 cells, trypan blue exclusion. The conditions noted are these: at the concentrations tested. The format is cell-based, human. As to the method: (§2) Cell viability was evaluated using a trypan blue exclusion as previously described. Briefly, a 10 μl of cells suspension from each culture was mixed with equal volume of trypan blue dye. The mixture was loaded into a hemocytometer and cells were counted under a microscope. The percentage of viable cells was calculated as follows: Viable cells (%)=(total number of viable cells)/(total number of cells)×100.

Data set [6] deals with Foxp3. The data set can be described thus: RT-PCR gene expression in stimulated PBMCs: Foxp3. The data set is classed as cell-based, human. The conditions noted are these: 10 μg/mL. As to the method:
as §1

Data set [7] has as its system εGLT. The experiment in a line: RT-PCR of epsilon germline transcripts in PBMCs. The following applies: 10 μg/mL, 4 days, vs untreated cultures. The format is cell-based, human. The protocol:
as §1

For data set [8], the system named is human PBMCs. The experiment in a line: Cell viability of human PBMC, trypan blue exclusion. The format is cell-based. The conditions noted are these: any dose tested. As to the method: as §2

In the case of `COc1ccc2cc3[n+](cc2c1OC)CCc1cc2c(cc1-3)OCO2` [berberine], in data set [1], the “mRNA expression of STAT-3” value is “significantly increased”. Besides, in data set [2], the “mRNA expression of T-bet” value is on record as “significantly increased”. Moreover, the concentration at 1 h in data set [3] is 280 ng/mL. Further, the “Concentration of berberine in Cacao-2 cells, berberine standard alone” value in data set [4] was 2950 ng/mL. Besides, the “cell viability of U266 cells” value in data set [5] was “no toxicity”. Also, the “mRNA level of Foxp3” value in data set [6] is “trend of increase”. Besides, the “relative mRNA expression of εGLT” value in data set [7] is “significantly inhibited”. Also, the “cell viability of human PBMC” value in data set [8] is given as “not compromised”.

Values taken from patent US10500169B2, “Supression of IgE production by compounds derived from traditional chinese medicine” (Sean N. Parker Foundation, priority 2014, dated 2019).
